Reference: ChEMBL document CHEMBL1201861, “Genomics of Drug Sensitity in Cancer screening data, Wellcome Trust Sanger Institute”

Key:
Assay in all cases: cells
[1] = tested on: COR-L88; type: functional, cell-based, Homo sapiens; conditions: Homo sapiens, COR-L88;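 further: growth inhibition of COR-L88 cells, read out with a cell viability assay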
Description: SANGER: Inhibition of human COR-L88 cell growth in a cell viability assay.

[2] = tested on: A101D; type: functional, cell-based, Homo sapiens; conditions: Homo sapiens, A101D;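 further: growth inhibition of the cell line, measured with a viability assay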
Description: SANGER: Inhibition of human A101D cell growth in a cell viability assay.

[3] = tested on: D283 Med; type: functional, cell-based, Homo sapiens; conditions: Homo sapiens, D283 Med
Description: SANGER: Inhibition of human D-283MED cell growth in a cell viability assay.

[4] = tested on: EKVX; type: functional, cell-based, Homo sapiens; conditions: Homo sapiens, EKVX;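 further: growth inhibition of human EKVX cells, read out with a cell viability assay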
Description: SANGER: Inhibition of human EKVX cell growth in a cell viability assay.

[5] = tested on: NCI-H526; type: functional, cell-based, Homo sapiens; conditions: Homo sapiens, NCI-H526;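 further: growth inhibition of the human NCI-H526 cell line, measured by a cell viability assay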
Description: SANGER: Inhibition of human NCI-H526 cell growth in a cell viability assay.

[6] = tested on: LS-411N; type: functional, cell-based, Homo sapiens; conditions: Homo sapiens, LS-411N
[7] = tested on: HCE-T; type: functional, cell-based, Homo sapiens; conditions: Homo sapiens, HCE-T;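 further: cell viability assay read-out, reporting inhibition of HCE-T cell growth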
Description: SANGER: Inhibition of human HCE-T cell growth in a cell viability assay.

[8] = tested on: MPP-89; type: functional, cell-based, Homo sapiens; conditions: Homo sapiens, MPP-89;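 further: growth inhibition of human MPP-89 cells, read out with a cell viability assay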
Description: SANGER: Inhibition of human MPP-89 cell growth in a cell viability assay.

[9] = tested on: SF-268; type: functional, cell-based, Homo sapiens; conditions: Homo sapiens, SF-268;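 further: growth inhibition of SF-268 cells determined with a cell viability assay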
Description: SANGER: Inhibition of human SF268 cell growth in a cell viability assay.

[10] = tested on: EW-11; type: functional, cell-based, Homo sapiens; conditions: Homo sapiens, EW-11;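 further: growth inhibition of human EW-11 cells, measured with a cell viability assay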
Description: SANGER: Inhibition of human EW-11 cell growth in a cell viability assay.

[11] = tested on: ACN; type: functional, cell-based, Homo sapiens; conditions: Homo sapiens, ACN;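 further: growth inhibition of the human ACN cell line, read out via cell viability testing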
Description: SANGER: Inhibition of human ACN cell growth in a cell viability assay.

[12] = tested on: NCI-H1304; type: functional, cell-based, Homo sapiens; conditions: Homo sapiens, NCI-H1304;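 further: growth inhibition of the cancer cell line, measured in a cell viability assay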
Description: SANGER: Inhibition of human NCI-H1304 cell growth in a cell viability assay.

[13] = tested on: GR-ST; type: functional, cell-based, Homo sapiens; conditions: Homo sapiens, GR-ST
Description: SANGER: Inhibition of human GR-ST cell growth in a cell viability assay.

[14] = tested on: UACC-62; type: functional, cell-based; conditions: Homo sapiens;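 further: growth inhibition of human UACC-62 cells, read out by a cell viability assay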
Description: SANGER: Inhibition of human UACC-62 cell growth in a cell viability assay.

[15] = tested on: ETK-1; type: functional, cell-based, Homo sapiens; conditions: Homo sapiens, ETK-1;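 further: growth inhibition of human ETK-1 cells, read out with a cell viability assay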
Description: SANGER: Inhibition of human ETK-1 cell growth in a cell viability assay.

[16] = tested on: SJRH30; type: functional, cell-based; conditions: Homo sapiens;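 further: growth inhibition of human SJRH30 cells, read out with a cell viability assay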
Description: SANGER: Inhibition of human SJRH30 cell growth in a cell viability assay.

[17] = tested on: SK-N-DZ; type: functional, cell-based, Homo sapiens; conditions: Homo sapiens, SK-N-DZ; read-out: IC50;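 further: growth inhibition of the cancer cell line, read out through a viability assay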
Description: SANGER: Inhibition of human SK-N-DZ cell growth in a cell viability assay.

[18] = tested on: KM12; type: functional, cell-based, Homo sapiens; conditions: Homo sapiens, KM12;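 further: KM12 cell growth inhibition, read out with a cell viability assay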
Description: SANGER: Inhibition of human KM12 cell growth in a cell viability assay.

[19] = tested on: AM-38; type: functional, cell-based, Homo sapiens; conditions: Homo sapiens, AM-38;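 further: growth inhibition of AM-38 cells of human origin, read out by a cell viability assay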
Description: SANGER: Inhibition of human AM-38 cell growth in a cell viability assay.

[20] = tested on: Becker; type: functional, cell-based, Homo sapiens; conditions: Homo sapiens, Becker;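 further: growth inhibition of Becker cells, read out with a cell viability assay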
Description: SANGER: Inhibition of human Becker cell growth in a cell viability assay.

[21] = tested on: P30-OHK; type: functional, cell-based, Homo sapiens; conditions: Homo sapiens, P30-OHK;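 further: growth inhibition of the P30-OHK cell line, read out with a cell viability assay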
Description: SANGER: Inhibition of human P30-OHK cell growth in a cell viability assay.

[22] = tested on: MHH-PREB-1; type: functional, cell-based, Homo sapiens; conditions: Homo sapiens, MHH-PREB-1;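 further: cell viability assay measuring inhibition of proliferation of human MHH-PREB-1 cells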
Description: SANGER: Inhibition of human MHH-PREB-1 cell growth in a cell viability assay.

[23] = tested on: LB831-BLC; type: functional, cell-based, Homo sapiens; conditions: Homo sapiens, LB831-BLC;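 further: growth inhibition of LB831-BLC cells, read out with a cell viability assay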
Description: SANGER: Inhibition of human LB831-BLC cell growth in a cell viability assay.

[24] = tested on: NCI-H446; type: functional, cell-based, Homo sapiens; conditions: Homo sapiens, NCI-H446;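 further: growth inhibition of NCI-H446 cells determined by a cell viability assay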
Description: SANGER: Inhibition of human NCI-H446 cell growth in a cell viability assay.

[25] = tested on: TE-5; type: functional, cell-based, Homo sapiens; conditions: Homo sapiens, TE-5;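 further: inhibition of cell growth, read out by a cell viability assay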
Description: SANGER: Inhibition of human TE-5 cell growth in a cell viability assay.

[26] = tested on: KARPAS-45; type: functional, cell-based, Homo sapiens; conditions: Homo sapiens, KARPAS-45;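 further: inhibition of cell line growth, read out through a viability assay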
Description: SANGER: Inhibition of human KARPAS-45 cell growth in a cell viability assay.

[27] = tested on: COLO-824; type: functional, cell-based, Homo sapiens; conditions: Homo sapiens, COLO-824
Description: SANGER: Inhibition of human COLO-824 cell growth in a cell viability assay.

[28] = tested on: D-502MG; type: functional, cell-based, Homo sapiens; conditions: Homo sapiens, D-502MG
Description: SANGER: Inhibition of human D-502MG cell growth in a cell viability assay.

[29] = tested on: CTV-1; type: functional, cell-based, Homo sapiens; conditions: Homo sapiens, CTV-1;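 further: growth inhibition of the cell line, read out with a cell viability assay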
Description: SANGER: Inhibition of human CTV-1 cell growth in a cell viability assay.

[30] = tested on: NCI-H1770; type: functional, cell-based, Homo sapiens; conditions: Homo sapiens, NCI-H1770;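 further: growth inhibition of NCI-H1770 cells determined with a viability readout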
Description: SANGER: Inhibition of human NCI-H1770 cell growth in a cell viability assay.

[31] = tested on: RXF 393; type: functional, cell-based, Homo sapiens; conditions: Homo sapiens, RXF 393;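 further: growth inhibition of human RXF 393 cells, read out with a cell viability assay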
Description: SANGER: Inhibition of human RXF393 cell growth in a cell viability assay.

[32] = tested on: MLMA; type: functional, cell-based, Homo sapiens; conditions: Homo sapiens, MLMA;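 further: growth inhibition of MLMA cells (human), determined through a cell viability readout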
Description: SANGER: Inhibition of human MLMA cell growth in a cell viability assay.

[33] = tested on: VA-ES-BJ; type: functional, cell-based, Homo sapiens; conditions: Homo sapiens, VA-ES-BJ;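 further: growth inhibition of the VA-ES-BJ cell line, read out by a cell viability assay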
Description: SANGER: Inhibition of human VA-ES-BJ cell growth in a cell viability assay.

[34] = tested on: COLO-668; type: functional, cell-based, Homo sapiens; conditions: Homo sapiens, COLO-668
Description: SANGER: Inhibition of human COLO-668 cell growth in a cell viability assay.

[35] = tested on: IA-LM; type: functional, cell-based; conditions: Homo sapiens;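 further: cell viability assay measuring growth inhibition of human IA-LM cells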
Description: SANGER: Inhibition of human IA-LM cell growth in a cell viability assay.

[36] = tested on: Calu-6; type: functional, cell-based, Homo sapiens; conditions: Homo sapiens, Calu-6;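 further: growth of human Calu-6 cells, read out by a cell viability assay, IC50 marking inhibition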
Description: SANGER: Inhibition of human Calu-6 cell growth in a cell viability assay.

[37] = tested on: KNS-81-FD; type: functional, cell-based, Homo sapiens; conditions: Homo sapiens, KNS-81-FD;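 further: growth inhibition of KNS-81-FD cells, read out with a cell viability assay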
Description: SANGER: Inhibition of human KNS-81-FD cell growth in a cell viability assay.

[38] = tested on: RERF-LC-MS; type: functional, cell-based; conditions: Homo sapiens;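 further: growth inhibition of human RERF-LC-MS cells, read out by a cell viability assay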
Description: SANGER: Inhibition of human RERF-LC-MS cell growth in a cell viability assay.

[39] = tested on: TE-6; type: functional, cell-based, Homo sapiens; conditions: Homo sapiens, TE-6;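 further: growth inhibition of TE-6 cells, read out with a cell viability assay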
Description: SANGER: Inhibition of human TE-6 cell growth in a cell viability assay.

[40] = tested on: EW-18; type: functional, cell-based, Homo sapiens; conditions: Homo sapiens, EW-18; read-out: IC50;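 further: growth inhibition of EW-18 cells, read out by a cell viability assay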
Description: SANGER: Inhibition of human EW-18 cell growth in a cell viability assay.

[41] = tested on: KY821; type: functional, cell-based, Homo sapiens; conditions: Homo sapiens, KY821;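 further: growth inhibition of human KY821 cells, read out by a cell viability assay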
Description: SANGER: Inhibition of human KY821 cell growth in a cell viability assay.

[42] = tested on: LB1047-RCC; type: functional, cell-based, Homo sapiens; conditions: Homo sapiens, LB1047-RCC;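 further: inhibition of cell growth, determined with a cell viability assay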
Description: SANGER: Inhibition of human LB1047-RCC cell growth in a cell viability assay.

[43] = tested on: MS-1; type: functional, cell-based, Homo sapiens; conditions: Homo sapiens, MS-1;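 further: growth inhibition of MS-1 cells, read out by cell viability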
Description: SANGER: Inhibition of human MS-1 cell growth in a cell viability assay.

[44] = tested on: MFM-223; type: functional, cell-based, Homo sapiens; conditions: Homo sapiens, MFM-223
Description: SANGER: Inhibition of human MFM-223 cell growth in a cell viability assay.

[45] = tested on: SNB-75; type: functional, cell-based, Homo sapiens; conditions: Homo sapiens, SNB-75;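 further: cell viability assay measuring growth inhibition of human SNB-75 cells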
Description: SANGER: Inhibition of human SNB75 cell growth in a cell viability assay.

[46] = tested on: BB49-HNC; type: functional, cell-based, Homo sapiens; conditions: Homo sapiens, BB49-HNC;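 further: cell viability assay read-out, reported as inhibition of BB49-HNC cell growth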
Description: SANGER: Inhibition of human BB49-HNC cell growth in a cell viability assay.

[47] = tested on: LS-1034; type: functional, cell-based, Homo sapiens; conditions: Homo sapiens, LS-1034
Description: SANGER: Inhibition of human LS-1034 cell growth in a cell viability assay.

[48] = tested on: A4-Fuk; type: functional, cell-based, Homo sapiens; conditions: Homo sapiens, A4-Fuk;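 further: growth inhibition of A4-Fuk cells, read out by a cell viability assay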
Description: SANGER: Inhibition of human A4-Fuk cell growth in a cell viability assay.

[49] = tested on: TGBC1TKB; type: functional, cell-based, Homo sapiens; conditions: Homo sapiens, TGBC1TKB;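 further: growth inhibition of TGBC1TKB cells, read out by a cell viability assay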
Description: SANGER: Inhibition of human TGBC1TKB cell growth in a cell viability assay.

SMILES: CCCCCCCCCCCC1=C(O)C(=O)C=C(O)C1=O [EMBELIN]
- IC50 [1]: > 32 µM
- IC50 [2]: 6.37 µM
- IC50 [3]: 14.7 µM
- IC50 [4]: > 32 µM
- IC50 [5]: > 32 µM
- IC50 [6]: 7.49 µM
- IC50 [7]: 13.1 µM
- IC50 [8]: 25.1 µM
- IC50 [9]: 7.9 µM
- IC50 [10]: > 32 µM
- IC50 [11]: 5.86 µM
- IC50 [12]: > 32 µM
- IC50 [13]: 5.8 µM
- IC50 [14]: 1.75 µM
- IC50 [15]: 9.75 µM
- IC50 [16]: 7.97 µM
- IC50 [17]: > 32 µM
- IC50 [18]: 13.5 µM
- IC50 [19]: 12.5 µM
- IC50 [20]: 15.8 µM
- IC50 [21]: 6.13 µM
- IC50 [22]: 10.9 µM
- IC50 [23]: 12.6 µM
- IC50 [24]: > 32 µM
- IC50 [25]: 9.42 µM
- IC50 [26]: 15.6 µM
- IC50 [27]: > 32 µM
- IC50 [28]: > 32 µM
- IC50 [29]: 9.37 µM
- IC50 [30]: > 32 µM
- IC50 [31]: > 32 µM
- IC50 [32]: > 32 µM
- IC50 [33]: 10.7 µM
- IC50 [34]: > 32 µM
- IC50 [35]: 2.23 µM
- IC50 [36]: 4.83 µM
- IC50 [37]: 19.5 µM
- IC50 [38]: 30.6 µM
- IC50 [39]: 24.3 µM
- IC50 [40]: 10.5 µM
- IC50 [41]: > 32 µM
- IC50 [42]: 5.8 µM
- IC50 [43]: > 32 µM
- IC50 [44]: > 32 µM
- IC50 [45]: 17.4 µM
- IC50 [46]: > 32 µM
- IC50 [47]: > 32 µM
- IC50 [48]: > 32 µM
- IC50 [49]: 11 µM

SMILES: COc1ccc(-c2cc3nccn3c(Nc3ncccc3C(N)=O)n2)cc1OC
- IC50 [1]: > 8 µM
- IC50 [2]: 4.87 µM
- IC50 [3]: > 8 µM
- IC50 [4]: > 8 µM
- IC50 [5]: 5.28 µM
- IC50 [6]: 3.78 µM
- IC50 [7]: > 8 µM
- IC50 [8]: 1.67 µM
- IC50 [9]: 2.83 µM
- IC50 [10]: > 8 µM
- IC50 [11]: > 8 µM
- IC50 [12]: > 8 µM
- IC50 [13]: 3.7 µM
- IC50 [14]: > 8 µM
- IC50 [15]: 5.21 µM
- IC50 [16]: > 8 µM
- IC50 [17]: > 8 µM
- IC50 [18]: 2.69 µM
- IC50 [19]: > 8 µM
- IC50 [20]: > 8 µM
- IC50 [21]: 0.427 µM
- IC50 [22]: 2.55 µM
- IC50 [23]: 1.02 µM
- IC50 [24]: 4.99 µM
- IC50 [25]: 5.54 µM
- IC50 [26]: 1.9 µM
- IC50 [27]: > 8 µM
- IC50 [28]: > 8 µM
- IC50 [29]: 1.5 µM
- IC50 [30]: 2.61 µM
- IC50 [31]: 6.81 µM
- IC50 [32]: 0.993 µM
- IC50 [33]: > 8 µM
- IC50 [34]: > 8 µM
- IC50 [35]: 2.71 µM
- IC50 [36]: 6.87 µM
- IC50 [37]: > 8 µM
- IC50 [38]: > 8 µM
- IC50 [39]: 6.97 µM
- IC50 [40]: 4.58 µM
- IC50 [41]: > 8 µM
- IC50 [42]: 0.741 µM
- IC50 [43]: 7.7 µM
- IC50 [44]: > 8 µM
- IC50 [45]: > 8 µM
- IC50 [46]: 3.3 µM
- IC50 [47]: > 8 µM
- IC50 [48]: 1.81 µM
- IC50 [49]: > 8 µM
